Read-outs that look alike come from different tables or passages of the source. Each block holds one molecule with its values, some of them ahead of it.
Legend:
[1] = 298.15 K, cited from earlier work
[2] = for TΔSsol0 / ΔGsol0 / ΔHsol0 / ΔSsol0: dissolution; for ςHsolv: relative fraction of solvation enthalpy; for ςTSsolv: relative fraction of solvation entropy; for TΔSsolv0 / ΔGsolv0 / ΔHsolv0 / ΔSsolv0: solvation
[3] = Experimental: Details of the technique are given in the literature. In brief: a flow of the inert gas (N2) through the tube transported the saturated vapor of the sample under investigation at a constant temperature and flow rate. The sample vapor is completely condensed at some point downstream. The sample vapor pressure at this temperature was calculated from the sublimated sample amount and the volume of the inert gas used. The mass of sublimated substance was determined using a spectrophotometer method by means of spectrophotometer Cary-50 (Varian, Australia).
The equipment was calibrated with benzoic acid, as specified in earlier work of our research group.
Absolute vapor pressures for compounds are usually approximated by the Clarke–Glew equation [38].
The value of the sublimation enthalpy is calculated by the Clausius–Clayperon equation:(7) ΔcrgHm0(T)=−R⋅(∂(lnp)/∂(1/T))
The sublimation entropy at a given temperature T is calculated by the following relation:(8) ΔcrgSm0(T)=(ΔcrgHm0(T)−ΔcrgGm0(T))/T with ΔcrgGm0(T)=−RTln(p/p0) , where p0 is the standard pressure (1 × 10^5 Pa).
For experimental reasons, the sublimation data are obtained at high temperatures. However, in comparison with the effusion methods, the temperatures are much lower, which makes extrapolation to room conditions easier.
Van der Waals molecular volumes ( V^vdw ) were estimated by the program GEPOL [50] using atom radiuses proposed by Kitaigorodskii. The free molecular volume in the crystal lattice was calculated on the basis of the single crystal X-ray diffraction data:(14) V^free=V^mol−V^vdw where V^mol is the molecular volume in crystal lattice, which is estimated by the equation:(15) V^mol=V^cell/Z where V^cell is the unit cell volume and Z is the number of molecules in the unit cell.

[4] = for solubility X2·10^5: p = 0.1 MPa, value is X2·10^5
Experimental: All the solubility experiments were carried out using the analytical isothermal shake-flask method. […] In brief, an excess amount of API was added to triplicate Pyrex glass tubes containing the respective dissolution media. […] The concentrations of the dissolved APIs were measured spectrophotometrically using a Cary 50 UV-vis spectrophotometer (Varian, Australia) with an accuracy of 2–4%.
Conversion of molarity to mole fraction concentration scale was produced using Equation (10):(10) X2=M2S2/S2(M2−M1)+1000ρ where S2 is molarity of API (mol·L^−1), M1 and M2 are the molar masses of solvent and solute, respectively, and ρ (g·cm^−3) is the density of the pure solvents. The mole fraction solubilities for buffer solutions were calculated taking into account the buffer compositions. Densities of buffer solutions (pH 2.0 and 7.4) were measured and published early.
The results are stated as the average of at least three replicated experiments.

[5] = ref Koradia et al. [34]; cited from earlier work
Remark: listed apart in the source
[6] = buffer pH 2.0, 298.15 K (Table 5)
[7] = buffer pH 7.4, 298.15 K (Table 5)

Structure (SMILES): O=C1NCCN1 [2-imadazolidinone]
Δgcr Hm0 (298.15) ([1]; ref [5]): 20 kcal/mol | ΔgcrGm0 (298.15) ([1]; ref [5]): 10.2 kcal/mol

TΔSsol0 ([2]; 1-octanol, 298.15 K): 4.18 kcal/mol | ΔGsol0 ([2]; 1-octanol, 298.15 K): 6.07 kcal/mol | ΔHsol0 ([2]; 1-octanol, 298.15 K): 10.2 ± 0.406 kcal/mol | ΔSsol0 ([2]; 1-octanol, 298.15 K): 58.5 ± 2.5 J·K^−1·mol^−1 | TΔSsol0 ([2]; buffer pH 2.0, 298.15 K): -0.22 kcal/mol | ΔGsol0 ([2]; buffer pH 2.0, 298.15 K): 6.57 kcal/mol | ΔHsol0 ([2]; buffer pH 2.0, 298.15 K): 6.36 ± 0.669 kcal/mol | ΔSsol0 ([2]; buffer pH 2.0, 298.15 K): −3.1 ± 3.7 J·K^−1·mol^−1 | TΔSsol0 ([2]; buffer pH 7.4, 298.15 K): 2.84 kcal/mol | ΔGsol0 ([2]; buffer pH 7.4, 298.15 K): 6.12 kcal/mol | ΔHsol0 ([2]; buffer pH 7.4, 298.15 K): 8.96 ± 0.454 kcal/mol | ΔSsol0 ([2]; buffer pH 7.4, 298.15 K): 39.9 ± 2.7 J·K^−1·mol^−1 | ςHsolv ([2]; 1-octanol, 298.15 K): 70.3% | ςHsolv ([2]; buffer pH 2.0, 298.15 K): 65.8% | ςHsolv ([2]; buffer pH 7.4, 298.15 K): 68.8% | ςTSsolv ([2]; 1-octanol, 298.15 K): 29.7% | ςTSsolv ([2]; buffer pH 2.0, 298.15 K): 34.2% | ςTSsolv ([2]; buffer pH 7.4, 298.15 K): 31.2% | TΔSsolv0 ([2]; 1-octanol, 298.15 K): -10.5 kcal/mol | ΔGsolv0 ([2]; 1-octanol, 298.15 K): -14.3 kcal/mol | ΔHsolv0 ([2]; 1-octanol, 298.15 K): -24.78 kcal/mol | ΔSsolv0 ([2]; 1-octanol, 298.15 K): −147.0 J·K^−1·mol^−1 | TΔSsolv0 ([2]; buffer pH 2.0, 298.15 K): -14.9 kcal/mol | ΔGsolv0 ([2]; buffer pH 2.0, 298.15 K): -13.8 kcal/mol | ΔHsolv0 ([2]; buffer pH 2.0, 298.15 K): -28.66 kcal/mol | ΔSsolv0 ([2]; buffer pH 2.0, 298.15 K): −208.6 J·K^−1·mol^−1 | TΔSsolv0 ([2]; buffer pH 7.4, 298.15 K): -11.8 kcal/mol | ΔGsolv0 ([2]; buffer pH 7.4, 298.15 K): -14.2 kcal/mol | ΔHsolv0 ([2]; buffer pH 7.4, 298.15 K): -26.05 kcal/mol | ΔSsolv0 ([2]; buffer pH 7.4, 298.15 K): −165.6 J·K^−1·mol^−1 | 298.15⋅ΔcrgSm0(298.15K) ([3]; 298.15 K): 14.7 kcal/mol | ΔcrgGm0(298.15), sublimation Gibbs energy ([3]; 298.15 K): 20.4 kcal/mol | ΔcrgHm0(298.15K), sublimation enthalpy ([3]; 298.15 K): 35.01 ± 0.17 kcal/mol | ΔcrgSm0(298.15K), sublimation entropy ([3]; 298.15 K): 205.5 ± 2.8 J·mol^−1·K^−1 | ΔcrgHm0(T), sublimation enthalpy ([3]; at experimental temperature T): 33.44 ± 0.17 kcal/mol | ςH ([3]; enthalpy term of sublimation, 298.15 K): 70.5% | ςTS ([3]; entropy term of sublimation, 298.15 K): 29.5% | p(298.15K), saturated vapor pressure ([3]; extrapolated to 298.15 K): 1.19·10^−10 Pa | β = V^free/V^vdw ([3]; free volume in the crystal lattice over van der Waals volume): 36.3% | X2 (solubility) ([4]; 1-octanol, 298.15 K (Table 5)): 3.61·10^5 mol.frac. | solubility X2·10^5 ([4]; 1-octanol, 298.15 K): 3.61 mol. frac. | solubility X2·10^5 ([4]; 1-octanol, 303.15 K): 4.97 mol. frac. | solubility X2·10^5 ([4]; 1-octanol, 308.15 K): 6.53 mol. frac. | solubility X2·10^5 ([4]; 1-octanol, 313.15 K): 8.26 mol. frac. | X2 (solubility) [4, 6]: 1.49·10^5 mol.frac. | solubility X2·10^5 ([4]; buffer pH 2.0, 298.15 K): 1.49 mol. frac. | solubility X2·10^5 ([4]; buffer pH 2.0, 303.15 K): 1.82 mol. frac. | solubility X2·10^5 ([4]; buffer pH 2.0, 308.15 K): 2.26 mol. frac. | solubility X2·10^5 ([4]; buffer pH 2.0, 313.15 K): 2.46 mol. frac. | X2 (solubility) [4, 7]: 3.28·10^5 mol.frac. | solubility X2·10^5 ([4]; buffer pH 7.4, 298.15 K): 3.28 mol. frac. | solubility X2·10^5 ([4]; buffer pH 7.4, 303.15 K): 4.33 mol. frac. | solubility X2·10^5 ([4]; buffer pH 7.4, 308.15 K): 5.51 mol. frac. | solubility X2·10^5 ([4]; buffer pH 7.4, 313.15 K): 6.72 mol. frac.
Structure (SMILES): O=C1CN(/N=C/c2ccc([N+](=O)[O-])o2)C(=O)N1 [NFT, nitrofurantoin]

Structure (SMILES): O=C1CCC(=O)N1 [Succinimide]
Δgcr Hm0 (298.15) ([1]; ref [6]): 20 kcal/mol | ΔgcrGm0 (298.15) ([1]; ref [6]): 8.77 kcal/mol

Structure (SMILES): O=Cc1ccc(-c2ccc([N+](=O)[O-])cc2)o1 [5-(4-nitrophenyl)-furan-2-carbaldehyde]
Δgcr Hm0 (298.15) ([1]; ref [8]): 32.48 kcal/mol | ΔgcrGm0 (298.15) ([1]; ref [8]): 15.6 kcal/mol

Structure (SMILES): O=C1CNC(=O)N1 [2,4-Imidazolidinedione]
Δgcr Hm0 (298.15) ([1]; ref [7]): 27.8 kcal/mol | ΔgcrGm0 (298.15) ([1]; ref [7]): 13.8 kcal/mol

Structure (SMILES): O=C1CNC(=S)N1 [2-Thiohydantoin]
Δgcr Hm0 (298.15) ([1]; ref [7]): 28.47 kcal/mol | ΔgcrGm0 (298.15) ([1]; ref [7]): 14.4 kcal/mol

TΔSsol0 ([2]; buffer pH 2.0, 298.15 K): 5.04 kcal/mol | ΔGsol0 ([2]; buffer pH 2.0, 298.15 K): 7 kcal/mol | ΔHsol0 ([2]; buffer pH 2.0, 298.15 K): 12.1 ± 0.406 kcal/mol | ΔSsol0 ([2]; buffer pH 2.0, 298.15 K): 70.9 ± 2.6 J·K^−1·mol^−1 | TΔSsol0 ([2]; buffer pH 7.4, 298.15 K): 10.6 kcal/mol | ΔGsol0 ([2]; buffer pH 7.4, 298.15 K): 6.41 kcal/mol | ΔHsol0 ([2]; buffer pH 7.4, 298.15 K): 17.2 ± 0.287 kcal/mol | ΔSsol0 ([2]; buffer pH 7.4, 298.15 K): 148.5 ± 2.0 J·K^−1·mol^−1 | difference between equilibrium solubility of the monohydrate and solubility of anhydrous NFT ([4]; 313.15 K): ≤ 15% | X2 (solubility) [4, 6]: 0.73·10^5 mol.frac. | solubility X2·10^5 ([4]; buffer pH 2.0, 298.15 K): 0.73 mol. frac. | solubility X2·10^5 ([4]; buffer pH 2.0, 303.15 K): 1.07 mol. frac. | solubility X2·10^5 ([4]; buffer pH 2.0, 308.15 K): 1.43 mol. frac. | solubility X2·10^5 ([4]; buffer pH 2.0, 313.15 K): 1.96 mol. frac. | X2 (solubility) [4, 7]: 1.98·10^5 mol.frac. | solubility X2·10^5 ([4]; buffer pH 7.4, 303.15 K): 2.34 mol. frac. | solubility X2·10^5 ([4]; buffer pH 7.4, 308.15 K): 3.83 mol. frac. | solubility X2·10^5 ([4]; buffer pH 7.4, 313.15 K): 5.90 mol. frac. | ΔHw, vaporization enthalpy of water from the crystal (from DSC and TG, Equation (4)): 14.4 kcal/mol | sublimation enthalpy computed using Equation (5) (thermodynamic cycle: sublimation enthalpy of NFT + ΔHw): 47.85 kcal/mol
Structure (SMILES): O.O=C1CN(/N=C/c2ccc([N+](=O)[O-])o2)C(=O)N1 [[NFT + H2O], nitrofurantoin monohydrate]
activation energy of dehydration process [5]: 46.8 to 47.1 kcal/mol

Source: article PMC8201255, “A Combined Experimental and Theoretical Study of Nitrofuran Antibiotics: Crystal Structures, DFT Computations, Sublimation and Solution Thermodynamics” (Molecules, 2021)
